Test results taken from patent US8987502B2, “Oleanolic acid amidate derivatives, preparation methods and uses thereof” (Hangzhou Bensheng Pharmaceutical Co., Ltd., priority 2011, dated 2015).

Legend:
K562/adr = experiment: MTT leukemia cell proliferation inhibition, K562/adr; type: cell-based; conditions: Homo sapiens, 72 h
Text: (§1) Leukemia cell lines: leukemia cell lines: K562/adr (drug-resistant, chronic myeloid leukemia, CML), NB4 (acute promyelocytic leukemia, AML), Kasumi-1 (acute myeloid leukemia M2 type, AML-M2), Jurkat (acute lymphoblastic leukemia, ALL), all of which are donated by Cancer Research Institute of Zhejiang University, China; and H9 (acute lymphoblastic leukemia, ALL), which is purchased from China Center for Type Culture Collection (CCTCC).
(§2) Reagents: The standard sample of oleanolic acid (OA) is purchased from Hua Kang Pharmaceutical Raw Material Factory, Shifang City, Sichuan, China; and the amidated oleanolic acid derivatives are prepared according to the present invention.
(§3) Obtaining 6000 well-growing leukemia cells and inoculating them into wells of a 96-well cell culture plate. The culture medium is the 1640 cell culture medium containing 10% fetal bovine serum. After adding the amidated oleanolic acid derivatives of different concentrations and mixing uniformly, placing the plate in a carbon dioxide cell incubator (5% CO2) at 37° C. and incubated for 72 hours. Then the relative number of viable cells is determined by the MTT method. In this experiment, the cell proliferation inhibition rate in control group (not treated with any compound) is set as 0%.

NB4 = experiment: MTT leukemia cell proliferation inhibition, NB4; type: cell-based; conditions: Homo sapiens, NB-4
Text: as §1, §2, §3

Kasumi-1 = experiment: MTT leukemia cell proliferation inhibition, Kasumi-1; type: cell-based; conditions: Homo sapiens
Text: as §1, §2, §3

H9 = experiment: MTT leukemia cell proliferation inhibition, H9; type: cell-based, human; conditions: Homo sapiens
Text: as §1, §2, §3

Jurkat = experiment: MTT leukemia cell proliferation inhibition, Jurkat; type: cell-based; conditions: Homo sapiens, 72 h
Text: as §1, §2, §3

RPMI8226 = experiment: MTT multiple myeloma cell proliferation inhibition, RPMI8226; type: cell-based; conditions: Homo sapiens, RPMI-8226
Description: Multiple myeloma cell lines: RPMI8226 (multiple myeloma), purchased from Fuxiang Bio-tech Co. Ltd., Shanghai, China.
as §3

A549 = experiment: MTT solid tumor cell proliferation inhibition, A549; type: cell-based, human; conditions: Homo sapiens
Description: (§4) Human solid tumor cell lines: Hep-2 (laryngeal carcinoma), A549 (human lung cancer), CaES-17 (esophageal cancer cell), PC-3 (prostate cancer), CNE (nasopharyngeal carcinoma cell), and SK-OV-3 (ovarian cancer cell), all of which are purchased from China Center For Type Culture Collection; RKO (human colon adenocarcinoma cell), MGC 803 (human gastric cancer cell), MG63 (osteosarcoma) and U87 MG (malignant glioma cell), all of which are purchased from Fuxiang Bio-tech Co. Ltd., Shanghai, China; PANC-1 (pancreatic cancer), Hep G2 (human liver cancer cell), Becap37 (human breast cancer cell), and Hela (human cervical cancer cell), all of which are donated by Cancer Research Institute of Zhejiang University, China.
(§5) Obtaining 4000 well-growing human solid tumor cells and inoculating them into wells of a 96-well cell culture plate. The culture medium is DMEM High Glucose cell culture medium containing 10% fetal bovine serum. The plate is placed in a carbon dioxide cell incubator (5% CO2) at 37° C. for 24 hours for incubation. After being added with the amidated oleanolic acid derivatives of different concentrations and mixed uniformly, the plate is placed in a carbon dioxide cell incubator (5% CO2) at 37° C. for 72 hours for incubation. Then the relative number of the living cells is determined by the MTT method. In this experiment, the cell proliferation inhibition rate in control group (not treated with any compound) is set as 0%.

PANC-1 = experiment: MTT solid tumor cell proliferation inhibition, PANC-1; type: cell-based, human; conditions: Homo sapiens
Description: as §4, §5

Becap37 = experiment: MTT solid tumor cell proliferation inhibition, Becap37; type: cell-based; conditions: Homo sapiens
Description: as §4, §5

MG 63 = experiment: MTT solid tumor cell proliferation inhibition, MG 63; type: cell-based, human
Description: as §4, §5

Hep G2 = experiment: MTT solid tumor cell proliferation inhibition, Hep G2; type: cell-based; conditions: Homo sapiens, HepG2
Description: as §4, §5

RKO = experiment: MTT solid tumor cell proliferation inhibition, RKO; type: cell-based; conditions: Homo sapiens, 72 h
Description: as §4, §5

U87 MG = experiment: MTT solid tumor cell proliferation inhibition, U87 MG; type: cell-based, human; conditions: Homo sapiens, U-87 MG, U87 MG, 72 h
Description: as §4, §5

Hela = experiment: MTT solid tumor cell proliferation inhibition, Hela; type: cell-based, human; conditions: Homo sapiens, Hela, 72 h
Description: as §4, §5

CaES-17 = experiment: MTT solid tumor cell proliferation inhibition, CaES-17; type: cell-based, human; conditions: Homo sapiens, CaEs17
Description: as §4, §5

CNE = experiment: MTT solid tumor cell proliferation inhibition, CNE; type: cell-based, human; conditions: Homo sapiens, CNE, 72 h
Description: as §4, §5

Hep-2 = experiment: MTT solid tumor cell proliferation inhibition, Hep-2; type: cell-based, human; conditions: Homo sapiens
Description: as §4, §5

MGC803 = experiment: MTT solid tumor cell proliferation inhibition, MGC803; type: cell-based, human; conditions: Homo sapiens, MGC-803
Description: as §4, §5

PC-3 = experiment: MTT solid tumor cell proliferation inhibition, PC-3; type: cell-based, human; conditions: Homo sapiens
Description: as §4, §5

SK-OV-3 = experiment: MTT solid tumor cell proliferation inhibition, SK-OV-3; type: cell-based, human; conditions: Homo sapiens
Description: as §4, §5

[1] = 16 μg/mL compound, read-out: IR (inhibition rate)

IC50 (K562/adr; MTT): > 16 µg/mL
IC50 (NB4; NB4, 72 h, MTT): > 16 µg/mL
IC50 (Kasumi-1; Kasumi-1, 72 h, MTT): > 16 µg/mL
IC50 (H9; H9, 72 h, MTT): > 16 µg/mL
IC50 (Jurkat; MTT): > 16 µg/mL
IC50 (RPMI8226; RPMI8226, 72 h, MTT): > 16 µg/mL
IC50 (A549; A549, 72 h, MTT): > 16 µg/mL
IC50 (PANC-1; PANC-1, 72 h, MTT): > 16 µg/mL
IC50 (Becap37; Becap37, 72 h, MTT): > 16 µg/mL
IC50 (MG 63; Homo sapiens, MG 63, 72 h, MTT): > 16 µg/mL
IC50 (Hep G2; Hep G2, 72 h, MTT): > 16 µg/mL
IC50 (RKO; MTT): > 16 µg/mL
IC50 (U87 MG; MTT): > 16 µg/mL
IC50 (Hela; MTT): > 16 µg/mL
IC50 (CaES-17; CaES-17, 72 h, MTT): > 16 µg/mL
IC50 (CNE; MTT): > 16 µg/mL
IC50 (Hep-2; Hep-2, 72 h, MTT): > 16 µg/mL
IC50 (MGC803; MGC803, 72 h, MTT): > 16 µg/mL
IC50 (PC-3; PC-3, 72 h, MTT): > 16 µg/mL
IC50 (SK-OV-3; SK-OV-3, 72 h, MTT): > 16 µg/mL
Structure (SMILES): CC1(C)CC[C@]2(C(=O)O)CC[C@]3(C)C(=CC[C@@H]4[C@@]5(C)CC[C@H](O)C(C)(C)[C@@H]5CC[C@]43C)[C@@H]2C1 [OA, Oleanolic acid]
inhibition at 16 µg/mL (K562/adr; [1]): 26.5%
inhibition at 16 µg/mL (NB4; NB4, 16 μg/mL compound, 72 h, read-out: IR (inhibition rate)): 17.2%
inhibition at 16 µg/mL (Kasumi-1; Kasumi-1, 16 μg/mL compound, 72 h, read-out: IR (inhibition rate)): 17.2%
inhibition at 16 µg/mL (H9; H9, 16 μg/mL compound, 72 h, read-out: IR (inhibition rate)): 22.8%
inhibition at 16 µg/mL (Jurkat; [1]): 9.4%
inhibition at 16 µg/mL (RPMI8226; RPMI8226, 16 μg/mL compound, 72 h, read-out: IR (inhibition rate)): 2.2%
inhibition at 16 µg/mL (A549; A549, 16 μg/mL compound, 72 h, read-out: IR (inhibition rate)): 5%
inhibition at 16 µg/mL (PANC-1; PANC-1, 16 μg/mL compound, 72 h, read-out: IR (inhibition rate)): 8.5%
inhibition at 16 µg/mL (Becap37; Becap37, 16 μg/mL compound, 72 h, read-out: IR (inhibition rate)): 23.4%
IR (inhibition rate) (MG 63; MG 63, 16 μg/mL compound, 72 h): 29.2%
inhibition at 16 µg/mL (Hep G2; Hep G2, 16 μg/mL compound, 72 h, read-out: IR (inhibition rate)): -18.5%
inhibition at 16 µg/mL (RKO; [1]): 14.3%
inhibition at 16 µg/mL (U87 MG; [1]): 21.8%
inhibition at 16 µg/mL (Hela; [1]): 22.9%
inhibition at 16 µg/mL (CaES-17; CaES-17, 16 μg/mL compound, 72 h, read-out: IR (inhibition rate)): 27.4%
inhibition at 16 µg/mL (CNE; [1]): 33.9%
inhibition at 16 µg/mL (Hep-2; Hep-2, 16 μg/mL compound, 72 h, read-out: IR (inhibition rate)): 9.8%
inhibition at 16 µg/mL (MGC803; MGC803, 16 μg/mL compound, 72 h, read-out: IR (inhibition rate)): 19.7%
inhibition at 16 µg/mL (PC-3; PC-3, 16 μg/mL compound, 72 h, read-out: IR (inhibition rate)): 29.1%
inhibition at 16 µg/mL (SK-OV-3; SK-OV-3, 16 μg/mL compound, 72 h, read-out: IR (inhibition rate)): 8.3%
